Measured values published in article PMC11225352, “A multicenter, randomized, double-blind, placebo-controlled ascending dose study to evaluate the safety, tolerability, pharmacokinetics (PK) and pharmacodynamic (PD) effects of Posiphen in subjects with early Alzheimer’s Disease” (Alzheimer's Research & Therapy, 2024).

How the values were obtained:
APP = system: APP; set-up: method as in PMID 36641607; details: mild AD (n = 14), 80 mg once per day, up to 27 days; not significant; cited from earlier work
Total tau = assay: CSF total tau level, screening to day 21; assay type: in vivo, human
Protocol: (§1) Changes in CSF biomarkers from the screening to confinement (sample at time of placement of catheter) were compared in the treatment and placebo groups by ANOVA, with models that included age, sex and baseline MMSE, and further analysis stratified by treatment dose. A similar approach was taken to analyze changes in MMSE, ADAS-cog and NPI. Data were analyzed using R (version 4.2.2).

APP mRNA = system: APP mRNA; set-up: method as in PMID 20558735, PMID 22693681; details: resulting in decreased production of APP and Aβ; cited from earlier work
[1] = Safety and tolerability (adverse events, vital signs, EKG, laboratory tests); assay type: in vivo, human
Protocol: Safety measures included adverse events, vital signs, EKG and laboratory tests. The Mini-Mental State Examination (MMSE), Alzheimer’s Disease Assessment Scale-cognitive (ADAS-cog12) and Neuropsychiatric Inventory (NPI) were used as cognitive and behavioral outcomes,.
(§2) A prespecified Statistical Analysis Plan (SAP) was prepared and finalized before the database lock occurred. For safety and tolerability, frequencies of adverse events, serious adverse events and laboratory abnormalities between the participants across the three groups are compared, using Pearson’s χ [2] or ANOVA, as appropriate. Plasma concentration-time data are analyzed by non-compartmental methods using WinNonlin version 6.2.1 or greater. Calculations are based on the actual sampling times recorded during the study. For PK analysis, only the subjects receiving Posiphen are included.

[2] = system: sAPPα, sAPPβ and total tau; set-up: method as in PMID 22791904; details: four MCI subjects, 60 mg four times per day for 10 days; cited from earlier work
[3] = CSF pharmacokinetics of Posiphen and its N1 and N8 metabolites (lumbar catheter sampling, LC-MS); assay type: in vivo, human; details: for mean levels averaged over 24 h of CSF sampling: after 21–23 days, early AD; for Tmax: median (min-max); for AUC(0-t) / Cmax: 60 mg; for AUC(0-t): read-out: AUC0 − 24; for Cmax: read-out: Cmax
Excerpt: (§3) For the confinement visit, subjects arrived in the early morning after an overnight fast. Physical and neurological examination, vital signs, and assessment of compliance were completed and blood was drawn for safety laboratory tests. An intravenous line and a second line for repeated blood draw were placed. To sample CSF, the intrathecal space was accessed using a Perifix 18G Touhy Epidural Needle (90 mm), and a Polyamide Epidural Catheter (20G Closed Tip) was inserted and fixed in place by an Anesthesiologist. Participants received the last day’s dosing of study drug or placebo. Initial blood and CSF samples were drawn, intravenous infusion of ^13C6-leucine was started and continued for 9 h, during which time subjects received a low leucine diet. Blood and CSF were sampled every 2 h for 36 h. After 36 h, intravenous lines and the CSF catheter were removed, vital signs were measured, physical exam performed, and blood and CSF were sent for routine laboratory studies. […] If postural headache was present, a blood patch was performed. Once stable, participants underwent a brief exam and vital sign check and were discharged. They received a phone call 24 h after discharge to check on their wellbeing.
(§4) For biochemical analysis to derive data for SILK, ^13C6-leucine was analyzed in plasma and CSF by mass spectrometry, and Aβ peptides in CSF were analyzed by immunoprecipitation-mass spectrometry (IP-MS) as previously described, by C2N Diagnostics (St Louis, MO). CSF levels of sAPPα, sAPPβ, Aβ38, 40 and 42 were analyzed by the ADCS Biomarker Core using Mesoscale Discovery (MSD) electrochemiluminescent assays (Mesoscale Discovery, Rockville, MD). Levels of Posiphen and its N1 and N8 metabolites in plasma and CSF were measured by Charles River Laboratories (Montreal, CA) by high-performance liquid chromatographic mass spectrometry, with use of deuterated Posiphen (procured by Charles River Laboratories) as an internal standard.
as §2
(§5) Noncompartmental pharmacokinetic parameters were estimated using Phoenix WinNonlin v8.3 (Certara, Princeton, NJ). Levels and parameters (Cmax, AUC) of posiphen, n-1 and n-8 metabolites were highly correlated in plasma and CSF. For the BID and TID doses the expected post dose plasma peaks appeared attenuated.

Aβ42 [4] = assay: SILK analysis of CSF Aβ42 (fractional synthesis rate); assay type: in vivo, human; details: after 21 days
Protocol: as §4
For SILK, the fraction of labeled Aβ for Aβ38, 40, and 42 during 36 h after administration of study drug for each subject was calculated, as described. The FSR measures were calculated by fitting a line to the upslope of the CSF Aβ labeling data. It was assumed that the upslope occurred between hours 6–16 h after the start of confinement. […] The percentage of newly synthesized and degraded Aβ was estimated over 36 h by multiplying the […] concentration of Aβ measured at the start of confinement (i.e. at catheter placement; time = 0) by the percentage of Aβ that contains ^13C6-leucine at each time point. […]

Aβ40 = assay: CSF Aβ40 level, screening to day 21 (MSD immunoassay); assay type: in vivo, human; details: ANOVA with age and sex as covariates; p = 0.39
Protocol: as §4, §1

Aβ42 [5] = assay: CSF Aβ42 level, screening to day 21 (MSD immunoassay); assay type: in vivo, human; details: ANOVA with age and sex as covariates; p = 0.33
Protocol: as §4, §1

[6] = Plasma pharmacokinetics of Posiphen and its N1 and N8 metabolites (LC-MS, non-compartmental); assay type: in vivo, human; details: for Tmax: median (min-max); for AUC(0-t) / Cmax: 60 mg; for AUC(0-t): read-out: AUC0 − 24; for Cmax: read-out: Cmax; for mean levels averaged over 24 h of CSF sampling: after 21–23 days, early AD
Excerpt: as §3, §4, §2, §5

[7] = human, oral, 60 mg BID (n = 5), geometric mean (% geometric CV)
[8] = human, oral, 60 mg daily (n = 4; N1: only one participant measurable), geometric mean (% geometric CV)
[9] = human, plasma, oral, plasma, 60 mg BID (n = 5), geometric mean (% geometric CV)
[10] = human, plasma, oral, plasma, 60 mg TID (n = 1)
[11] = human, plasma, oral, plasma, 60 mg daily (n = 4), geometric mean (% geometric CV)
[12] = plasma, 60 mg daily (n = 4), geometric mean (% geometric CV)

For `CN1CC[C@]2(C)c3cc(OC(=O)Nc4ccccc4)ccc3N(C)[C@H]12` [Posiphen], the “CSF APP before and after treatment” value (APP) is given as “small reduction”, the “CSF Total tau, Treatment difference (Posiphen – placebo)” value (Total tau; ANOVA with age and sex as covariates, p = 0.39) is given as 133 (149) p = 0.39 pg/mL and the “CSF Total tau, Day 21” value (Total tau; Posiphen arm, all doses (n = 10), screening 751 ± 404 (n = 11)) is given as 849 ± 369 (n = 10) pg/mL. For the same compound, the “CSF Total tau, LS mean change” value (Total tau; screening to day 21, SEM 79.1, placebo 53.7) was 186.4 pg/mL, the “translation of APP mRNA” value (APP mRNA) was “decreased” and the ECG parameters ([1]; Posiphen vs placebo groups) was “no significant changes or differences”. For the same compound, the laboratory safety parameters ([1]; Posiphen vs placebo groups) was “no clinically significant changes”, the safety and tolerability ([1]; early AD, 60 mg once, twice or three times per day for 21–23 days, 11 received Posiphen, 7 placebo) was “safe and was generally well tolerated” and the “adverse events (AEs), frequency vs placebo” value ([1]; early AD, 21–23 days) was “did not differ in frequency between the groups”. The vital signs ([1]; early AD, 21–23 days) was “no significant changes”, the “mean CSF sAPPα, sAPPβ and total tau at 10 days compared to pretreatment” value [2] was “decreased” and the “mean levels averaged over 24 h of CSF sampling” value (from here on “mean levels averaged over 24 h”) ([3]; 60 mg (n = 5)) was 0.46 ± 0.30 ng/mL. For the same compound, the “mean levels averaged over 24 h” value ([3]; 60 mg BID (n = 5)) was 0.73 ± 0.53 ng/mL, the Tmax ([3]; 60 mg BID (n = 5)) was 2 (2–20) hr and the “mean levels averaged over 24 h” value ([3]; 60 mg TID (n = 1)) was 0.71 ng/mL. It also gave a Tmax ([3]; human, oral, 60 mg daily (n = 4; N1: only one participant measurable), read-out: Tmax) of 2 h, an AUC(0-t) [3, 7] of 17.9 ng·h/mL and a Cmax [3, 7] of 2.21 ng/mL. It also gave an AUC(0-t) ([3]; human, oral, 60 mg TID (n = 1)) of 25 ng·h/mL, a Cmax ([3]; human, oral, 60 mg TID (n = 1)) of 2.44 ng/mL and an AUC(0-t) [3, 8] of 12.3 ng·h/mL. For the same compound, the Cmax [3, 8] was 2.85 ng/mL, the “effect on FSR estimates for Aβ42 vs. placebo” value (Aβ42 [4]) was “no significant effect” and the “CSF Aβ40, Treatment difference (Posiphen – placebo)” value (Aβ40) was -1.4 (1.57) p = 0.39 pg/mL. The “CSF Aβ42, Treatment difference (Posiphen – placebo)” value (Aβ42 [5]) was -0.104 (0.102) p = 0.33 pg/mL, the “plasma exposure with more frequent dosing” value ([6]; 60 mg once, twice, three times daily) was “did not increase proportionally” and the half-life ([6]; human, oral, plasma, 60 mg daily (n = 4), geometric mean (% geometric CV)) was 3.55 h. The Tmax ([6]; human, oral, plasma, 60 mg daily (n = 4), read-out: Tmax) was 2 h, the AUC(0-t) [6, 9] was 196 ng·h/mL and the Cmax [6, 9] was 30.4 ng/mL. For the same compound, the AUC(0-t) [6, 10] was 288 ng·h/mL, the Cmax [6, 10] was 51.8 ng/mL and the AUC(0-t) [6, 11] was 212 ng·h/mL. For the same compound, the Cmax [6, 11] was 52.7 ng/mL, the “mean levels averaged over 24 h” value ([6]; plasma, 60 mg BID (n = 5)) was 9.51 ± 5.77 ng/mL and the Tmax ([6]; plasma, 60 mg BID (n = 5)) was 2 (2–12) hr. The “mean levels averaged over 24 h” value ([6]; plasma, 60 mg TID (n = 1)) was 12.01 ng/mL, the Cl/F [6, 12] was 274.04 (17.50) L/hr and the V/F [6, 12] was 1403.1 (59.23) L. For the same compound, the “mean levels averaged over 24 h” value ([6]; plasma, 60 mg once daily (n = 5)) was 7.16 ± 4.25 ng/mL.
